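Protocol summary: plate cells (96-well), add compound at 5 concentrations, incubate 48 h, interpolate endpoints linearly. GI50 marks 50% less growth.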 Activity calls are given as the source filed them. Rule as the data show it: active = GI50 up to about 1.1 µM and inactive = higher.

The text below walks through data of ChEMBL document CHEMBL1201862, “PubChem BioAssay data set” (2004).

Among the test systems are NCI-H226; M14; 786-0; CCRF-CEM; K562; HCC 2998; HCT-15; MDA-MB-435; SK-OV-3; SN12C; IGROV-1; SF-539; SW-620; LOX IMVI; OVCAR-8; HL-60; HOP-62; RXF 393; A498.
Assay in all cases: growth of human tumour cells (NCI), 48 h

Regarding `CC12CC3OC(=O)C1COC14OC5(C2C1=O)C(O)(CCC1C4CC(O)C2(O)CC=CC(=O)C12C)C(=O)OC35C` (centres undefined), the GI50 in the assay with NCI-H226, with M14, with 786-0, in the assay with CCRF-CEM, in the assay with K562 and in the assay with HCC 2998 was > 100 µM (inactive) throughout. Further, the GI50 in the assay with HCT-15 is more than 100 µM; with MDA-MB-435, 68.4 µM (inactive); in the assay on SK-OV-3, > 100 µM (inactive); with SN12C, > 100 µM (inactive); with IGROV-1, > 100 µM (inactive); in the assay on SF-539 it was > 100 µM (inactive). Besides, the GI50 in the assay with SW-620, in the assay on LOX IMVI, in the assay with OVCAR-8 and in the assay with HL-60 was > 100 µM (inactive) throughout.

In the case of `COc1nc2sc3c(c2c(=O)n1CCCSSCCCn1c(OC)nc2sc4c(c2c1=O)CCCC4)CCCC3`, the GI50 with HOP-62, in the assay on NCI-H226, in the assay on M14, with RXF 393, in the assay with 786-0 and in the assay with CCRF-CEM was > 100 µM (inactive) in each case. Moreover, the GI50 with K562 was > 100 µM (inactive); in the assay with HCC 2998, > 100 µM (inactive); in the assay on HCT-15, more than 100 µM; in the assay on MDA-MB-435 it was > 100 µM (inactive); in the assay with SK-OV-3, > 100 µM (inactive); with SN12C, > 100 µM (inactive). The GI50 with IGROV-1, in the assay with SF-539, in the assay with LOX IMVI and in the assay with OVCAR-8 was > 100 µM (inactive) throughout.

As to `O=P1(O)c2ccccc2CCc2ccccc21`, the GI50 with HOP-62, in the assay with NCI-H226, in the assay on M14, in the assay with RXF 393, with 786-0 and in the assay with CCRF-CEM was > 100 µM (inactive) in each case. Also, the GI50 with K562 is > 100 µM (inactive); with HCC 2998 it was > 100 µM (inactive); in the assay with HCT-15, more than 100 µM; in the assay with MDA-MB-435 it was > 100 µM (inactive); in the assay with SK-OV-3, > 100 µM (inactive); in the assay on SN12C, > 100 µM (inactive). For the same compound, the GI50 in the assay on IGROV-1, in the assay with SF-539, in the assay with SW-620, in the assay on LOX IMVI and with OVCAR-8 was > 100 µM (inactive) in each case.

As for `CN(C)C12C=CC=CC3=C(c4ccccc4)C(c4ccccc4)=C(c4ccccc4)C31c1ccccc1C2` (centres undefined), the GI50 in the assay with HOP-62, with M14, in the assay on 786-0, in the assay with CCRF-CEM, in the assay with K562 and in the assay with HCC 2998 was > 100 µM (inactive) each time. The GI50 is more than 100 µM in the assay with HCT-15; > 100 µM (inactive) with MDA-MB-435; > 100 µM (inactive) in the assay with SK-OV-3; > 100 µM (inactive) with SN12C; > 100 µM (inactive) in the assay on IGROV-1; > 100 µM (inactive) with SF-539. Moreover, the GI50 in the assay with SW-620, with OVCAR-8 and in the assay on HL-60 was > 100 µM (inactive) in each case.

Take `Nc1nnc2c(-c3ccccc3)n[nH]c2n1`: the GI50 in the assay with A498 is 12.9 µM (inactive); with NCI-H226, 46 µM (inactive); with M14, > 100 µM (inactive); in the assay with RXF 393, 34.1 µM (inactive); with 786-0, 62.4 µM (inactive); in the assay on CCRF-CEM, 18.5 µM (inactive). Further, the GI50 in the assay on K562 is 39.9 µM (inactive); with HCC 2998 it was 93.5 µM (inactive); in the assay on HCT-15, 52.1 µM; in the assay with SN12C it was 63 µM (inactive); with SF-539, 24.8 µM (inactive); in the assay with SW-620 it was 54.7 µM (inactive). For the same compound, the GI50 with LOX IMVI was 50.6 µM (inactive); with OVCAR-8 it was 49.7 µM (inactive); in the assay with HL-60, 9.4 µM (inactive).
